Data taken from ChEMBL document CHEMBL3120137, “Substituted benzene sulfonamides incorporating 1,3,5-triazinyl moieties potently inhibit human carbonic anhydrases II, IX and XII” (Bioorg Med Chem Lett, 2014).

Target: Carbonic anhydrase 9 (Homo sapiens, UniProt Q16790)
Assay: Inhibition of human transmembrane carbonic anhydrase 9 preincubated for 15 mins by stopped flow CO2 hydration assay

SMILES	Ki
NS(=O)(=O)c1ccc(Nc2nc(Cl)nc(Nc3ccccc3)n2)cc1	5.9 nM
CN(CCO)c1nc(Cl)nc(Nc2ccc(S(N)(=O)=O)cc2)n1	1.2 nM
NS(=O)(=O)c1ccc(Nc2nc(N3CCOCC3)nc(N3CCOCC3)n2)cc1	34.1 nM
CC(C)(C)Nc1nc(Nc2ccc(S(N)(=O)=O)cc2)nc(NC(C)(C)C)n1	19.3 nM
Cc1cccc(Nc2nc(Nc3ccc(S(N)(=O)=O)cc3)nc(N3CCOCC3)n2)c1	10.2 nM
COc1ccc(Nc2ccc(S(N)(=O)=O)cc2)nn1	8.5 nM
NCCCNc1nc(NCCCN)nc(Nc2ccc(S(N)(=O)=O)cc2)n1	18.3 nM
CN(CCO)c1nc(Nc2ccc(S(N)(=O)=O)cc2)nc(N(C)CCO)n1	5.9 nM
NS(=O)(=O)c1ccc(Nc2nc(Cl)nc(Nc3ccc(F)c(Cl)c3)n2)cc1	21.2 nM
Nc1cccnc1Nc1ccc(S(N)(=O)=O)cc1	10.7 nM
NCCCNc1nc(Cl)nc(Nc2ccc(S(N)(=O)=O)cc2)n1	21.4 nM
Nc1nc(N)nc(Nc2ccc(S(N)(=O)=O)cc2)n1	2.4 nM
